Measurements as given in US8629148B2, “Substituted oxindole-derivatives and the use thereof for the treatment of vasopressin-dependent illnesses” (AbbVie Deutschland GmbH & Co. KG, priority 2007, dated 2014).

How the values were obtained:
[1] = target: T1, human vasopressin V1b receptor (Homo sapiens, UniProt P47901); experiment: Vasopressin V1b receptor binding assay (3H-AVP displacement, CHO-K1 membranes)
T1 construct: expressed in transfected cells; host or cells: CHO-K1 (cell line hV1b_3H2_CHO), membranes
T1 sequence (P47901 1-424): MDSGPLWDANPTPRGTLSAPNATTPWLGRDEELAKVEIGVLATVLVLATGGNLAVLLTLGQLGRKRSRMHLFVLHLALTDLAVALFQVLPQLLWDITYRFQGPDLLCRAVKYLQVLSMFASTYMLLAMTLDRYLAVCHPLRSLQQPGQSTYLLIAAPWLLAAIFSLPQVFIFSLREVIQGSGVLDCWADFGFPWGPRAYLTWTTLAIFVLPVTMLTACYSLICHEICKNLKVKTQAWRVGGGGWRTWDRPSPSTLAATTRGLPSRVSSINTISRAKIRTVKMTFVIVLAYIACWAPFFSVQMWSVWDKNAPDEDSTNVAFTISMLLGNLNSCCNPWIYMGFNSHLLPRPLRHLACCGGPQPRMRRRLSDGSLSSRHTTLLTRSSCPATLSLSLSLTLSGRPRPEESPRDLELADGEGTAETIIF
Method: 1. Vasopressin V1b Receptor Binding Assay:
The substance concentration was further diluted 1:5 in the assay mixture (2% DMSO in the mixture).
All determinations were carried out as triplicate determinations.

[2] = target: T2, recombinant human oxytocin receptors (Homo sapiens, UniProt P30559); experiment: Oxytocin receptor binding assay (3H-oxytocin, HEK-293 cells); settings: selectivity quotient, human OT vs human V1b
T2 construct: expressed in transfected cells; host or cells: HEK-293, transient expression; lysed and homogenized cells
T2 sequence (P30559 1-389): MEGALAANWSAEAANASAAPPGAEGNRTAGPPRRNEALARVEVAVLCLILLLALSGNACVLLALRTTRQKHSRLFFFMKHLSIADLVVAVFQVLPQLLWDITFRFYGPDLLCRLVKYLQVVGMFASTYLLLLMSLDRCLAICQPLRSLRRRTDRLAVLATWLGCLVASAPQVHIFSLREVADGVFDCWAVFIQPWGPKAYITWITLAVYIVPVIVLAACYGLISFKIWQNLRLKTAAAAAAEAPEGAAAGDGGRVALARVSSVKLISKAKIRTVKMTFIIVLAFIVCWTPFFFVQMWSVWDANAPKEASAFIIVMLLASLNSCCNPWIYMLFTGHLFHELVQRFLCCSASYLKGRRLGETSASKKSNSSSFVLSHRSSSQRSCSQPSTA
Method: The residue was taken up in ice-cold lysis buffer (50 mM Tris-HCl, 10% glycerol, pH 7.4 and Roche complete protease inhibitor) and subjected to an osmotic shock at 4° C. for 20 minutes. The lyzed cells were then centrifuged at 750×g at 4° C. for 20 minutes, the residue was taken up in incubation buffer, and aliquots of 10^7 cells/ml were prepared. The aliquots were frozen at −80° C. until used.
On the day of the experiment, the cells were thawed, diluted with incubation buffer and homogenized using a Multipette Combitip (Eppendorf, Hamburg). […] Triplicate determinations were set up. Bound and free radioligand were separated by filtration under vacuum with Whatman GF/B glass fiber filters with the aid of a Skatron cell harvester 7000. The bound radioactivity was determined by liquid scintillation measurement in a Tricarb Beta counter, model 2000 or 2200CA (Packard).

[3] = target: human vasopressin V1a receptor (Homo sapiens, UniProt P37288); experiment: Vasopressin V1a receptor binding assay (125I-AVP displacement, CHO-K1 membranes); settings: selectivity quotient, human V1a vs human V1b
Chain of human vasopressin V1a receptor (P37288 whole entry): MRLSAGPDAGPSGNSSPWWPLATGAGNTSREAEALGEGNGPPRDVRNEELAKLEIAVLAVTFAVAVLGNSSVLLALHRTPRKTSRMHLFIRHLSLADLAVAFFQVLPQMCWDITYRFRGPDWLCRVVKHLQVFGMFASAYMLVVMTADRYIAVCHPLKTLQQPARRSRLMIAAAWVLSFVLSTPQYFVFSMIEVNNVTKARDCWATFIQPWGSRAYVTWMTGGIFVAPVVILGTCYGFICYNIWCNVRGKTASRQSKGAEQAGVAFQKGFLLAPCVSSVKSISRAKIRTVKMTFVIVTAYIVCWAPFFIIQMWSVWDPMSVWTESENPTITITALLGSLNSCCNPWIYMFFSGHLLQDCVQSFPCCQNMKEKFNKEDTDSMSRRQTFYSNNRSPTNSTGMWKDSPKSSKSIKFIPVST

Compound | Ki [1] [nM] | Ki(h-OT)/Ki(h-V1b)* [2] | Ki(h-V1a)/Ki(h-V1b)* [3]
CCOc1ncccc1C1(OC(=O)c2ccc(N3CCN(C)CC3)cc2)C(=O)N(S(=O)(=O)c2ccc(OC)cc2)c2ccc(C#N)cc21 (stereo not drawn) [Example 2, 5-Cyano-3-(2-ethoxypyridin-3-yl)-1-(4-methoxyphenylsulfonyl)-2-oxo-2,3-dihydro-1H-indol-3-yl-4-(4-methylpiperazin-1-yl)benzoate] | 1 to 10 | ++ (25-75) | +++ (>75)
CCOc1ncccc1C1(OC(=O)c2ccc(N3CCN(C)CC3)cc2)C(=O)N(S(=O)(=O)c2ccc(OC)cc2OC)c2ccc(C#N)cc21 (stereo not drawn) [Example 3, 5-Cyano-1-(2,4-dimethoxyphenylsulfonyl)-3-(2-ethoxypyridin-3-yl)-2-oxo-2,3-dihydro-1H-indol-3-yl 4-(4-methylpiperazin-1-yl)benzoate] | 1 to 10 | + (10-<25) | +++ (>75)
CCOc1ncccc1C1(NC(=O)c2ccc(N3CCN(C)CC3)cc2)C(=O)N(S(=O)(=O)c2ccc(OC)cc2)c2ccc(C#N)cc21 (stereo not drawn) [Example 4, N-[5-Cyano-3-(2-ethoxypyridin-3-yl)-1-(4-methoxyphenylsulfonyl)-2-oxo-2,3-dihydro-1H-indol-3-yl]-4-(4-methylpiperazin-1-yl)benzamide] | 1 to 10 | ++ (25-75) | +++ (>75)
CCOc1ncccc1C1(NC(=O)c2ccc(N3CCN(CC)CC3)cc2)C(=O)N(S(=O)(=O)c2ccc(OC)cc2)c2ccc(C#N)cc21 (stereo not drawn) [Example 5, N-[5-Cyano-3-(2-ethoxypyridin-3-yl)-1-(4-methoxyphenylsulfonyl)-2-oxo-2,3-dihydro-1H-indol-3-yl]-4-(4-ethylpiperazin-1-yl)benzamide] | 1 to 10 | +++ (>75) | +++ (>75)
CCOc1ncccc1C1(NC(=O)c2ccc(N3CCN(C)CC3)cc2)C(=O)N(S(=O)(=O)c2ccc(OC)cc2OC)c2ccc(C#N)cc21 (stereo not drawn) [Example 6, N-[5-Cyano-1-(2,4-dimethoxyphenylsulfonyl)-3-(2-ethoxypyridin-3-yl)-2-oxo-2,3-dihydro-1H-indol-3-yl]-4-(4-methylpiperazin-1-yl)benzamide] | 1 to 10 | ++ (25-75) | +++ (>75)
CCOc1ncccc1C1(NC(=O)c2ccc(N3CCN(CC)CC3)cc2)C(=O)N(S(=O)(=O)c2ccc(OC)cc2OC)c2ccc(C#N)cc21 (stereo not drawn) [Example 7, N-[5-Cyano-1-(2,4-dimethoxyphenylsulfonyl)-3-(2-ethoxypyridin-3-yl)-2-oxo-2,3-dihydro-1H-indol-3-yl]-4-(4-ethylpiperazin-1-yl)benzamide] | 1 to 10 | ++ (25-75) | +++ (>75)
CCOc1ncccc1C1(NCc2ccc(N3CCN(C)CC3)cc2)C(=O)N(S(=O)(=O)c2ccc(OC)cc2)c2cc(Cl)c(F)cc21 (stereo not drawn) [Example 13, 6-Chloro-3-(2-ethoxypyridin-3-yl)-5-fluoro-1-(4-methoxyphenylsulfonyl)-3-[4-(4-methylpiperazin-1-yl)benzylamino]-1,3-dihydroindol-2-one] | 10 to 100 | ++ (25-75) | + (10-<25)
CCOc1ncccc1C1(NCc2ccc(N3CCN(C)CC3)cc2)C(=O)N(S(=O)(=O)c2ccc(OC)cc2)c2cc(F)c(F)cc21 (stereo not drawn) [Example 14, 5,6-Difluoro-3-(2-ethoxypyridin-3-yl)-1-(4-methoxyphenylsulfonyl)-3-[4-(4-methylpiperazin-1-yl)benzylamino]-1,3-dihydroindol-2-one] | 1 to 10 | ++ (25-75) | + (10-<25)
CCOc1ncccc1C1(NCc2ccc(N3CCN(C)CC3)cc2)C(=O)N(S(=O)(=O)c2ccc(OC)cc2)c2ccc(F)cc21 (stereo not drawn) [Example 15, 3-(2-Ethoxypyridin-3-yl)-5-fluoro-1-(4-methoxyphenylsulfonyl)-3-[4-(4-methylpiperazin-1-yl)benzylamino]-1,3-dihydroindol-2-one] | 1 to 10 | +++ (>75) | ++ (25-75)
CCOc1ncccc1C1(NCc2ccc(N3CCN(C)CC3)cc2)C(=O)N(S(=O)(=O)c2ccc(OC)cc2)c2ccc(C#N)cc21 (stereo not drawn) [Example 16, 3-(2-Ethoxypyridin-3-yl)-1-(4-methoxyphenylsulfonyl)-3-[4-(4-methylpiperazin-1-yl)-benzylamino]-2-oxo-2,3-dihydro-1H-indole-5-carbonitrile] | 1 to 10 | +++ (>75) | +++ (>75)
CCOc1ncccc1C1(NCc2ccc(N3CCN(C)CC3)cc2)C(=O)N(S(=O)(=O)c2ccc(OC)cc2OC)c2ccc(C#N)cc21 (stereo not drawn) [Example 17, 1-(2,4-Dimethoxyphenylsulfonyl)-3-(2-ethoxypyridin-3-yl)-3-[4-(4-methylpiperazin-1-yl)-benzylamino]-2-oxo-2,3-dihydro-1H-indole-5-carbonitrile] | 1 to 10 | + (10-<25) | + (10-<25)
CCOc1ncccc1C1(NCc2ccc(N3CCN(C)CC3)cc2)C(=O)N(S(=O)(=O)c2ccccc2OC)c2ccc(C#N)cc21 (stereo not drawn) [Example 24, 3-(2-Ethoxypyridin-3-yl)-1-(2-methoxyphenylsulfonyl)-3-[4-(4-methylpiperazin-1-yl)-benzylamino]-2-oxo-2,3-dihydro-1H-indole-5-carbonitrile] | 1 to 10 | + (10-<25) | +++ (>75)
CCOc1ncccc1C1(NCc2ccc(N3CCN(C)CC3)cc2)C(=O)N(S(=O)(=O)c2cccc(OC)c2)c2ccc(C#N)cc21 (stereo not drawn) [Example 25, 3-(2-Ethoxypyridin-3-yl)-1-(3-methoxyphenylsulfonyl)-3-[4-(4-methylpiperazin-1-yl)-benzylamino]-2-oxo-2,3-dihydro-1H-indole-5-carbonitrile] | 10 to 100 | + (10-<25) | ++ (25-75)
CCOc1ncccc1C1(NCc2ccc(N3CCN(C)CC3)cc2)C(=O)N(S(=O)(=O)c2ccc(Cl)cc2)c2ccc(C#N)cc21 (stereo not drawn) [Example 26, 1-(4-Chlorophenylsulfonyl)-3-(2-ethoxypyridin-3-yl)-3-[4-(4-methylpiperazin-1-yl)-benzylamino]-2-oxo-2,3-dihydro-1H-indole-5-carbonitrile] | 10 to 100 | +++ (>75) | ++ (25-75)
CCOc1ncccc1C1(NCc2ccc(N3CCN(C)CC3)cc2)C(=O)N(S(=O)(=O)c2ccccc2)c2ccc(C#N)cc21 (stereo not drawn) [Example 27, 1-Phenylsulfonyl-3-(2-ethoxypyridin-3-yl)-3-[4-(4-methylpiperazin-1-yl)benzylamino]-2-oxo-2,3-dihydro-1H-indole-5-carbonitrile] | 10 to 100 | +++ (>75) | + (10-<25)
CCOc1ncccc1C1(NCc2ccc(N3CCN(C)CC3)cc2)C(=O)N(S(=O)(=O)c2ccc(C#N)cc2)c2ccc(C#N)cc21 (stereo not drawn) [Example 28, 1-(4-Cyanophenylsulfonyl)-3-(2-ethoxypyridin-3-yl)-3-[4-(4-methylpiperazin-1-yl)-benzylamino]-2-oxo-2,3-dihydro-1H-indole-5-carbonitrile] | 10 to 100 | +++ (>75) | + (10-<25)
